Test results from patent US20150087627A1, “COMBINATION OF KINASE INHIBITORS AND USES THEREOF” (Intellikine LLC, priority 2011, published 2015).

Key:
Format in all cases: biochemical
PI3K β (p110β/p85α) = target: T1, PI3K β (p110β/p85α) (Homo sapiens, UniProt P42338); assay: PI 3-Kinase (human) HTRF assay, PI3K β; details: read-out: PI3K β IC50
T1 construct: purchased Upstate / Millipore Corporation

PI3K α (p110α/p85α) = target: T2, PI3K α (p110α/p85α) (Homo sapiens, UniProt P42336); assay: PI 3-Kinase (human) HTRF assay, PI3K α; details: read-out: PI3K α IC50
T2 construct: purchased Upstate / Millipore Corporation
T2 sequence (P42336 whole entry): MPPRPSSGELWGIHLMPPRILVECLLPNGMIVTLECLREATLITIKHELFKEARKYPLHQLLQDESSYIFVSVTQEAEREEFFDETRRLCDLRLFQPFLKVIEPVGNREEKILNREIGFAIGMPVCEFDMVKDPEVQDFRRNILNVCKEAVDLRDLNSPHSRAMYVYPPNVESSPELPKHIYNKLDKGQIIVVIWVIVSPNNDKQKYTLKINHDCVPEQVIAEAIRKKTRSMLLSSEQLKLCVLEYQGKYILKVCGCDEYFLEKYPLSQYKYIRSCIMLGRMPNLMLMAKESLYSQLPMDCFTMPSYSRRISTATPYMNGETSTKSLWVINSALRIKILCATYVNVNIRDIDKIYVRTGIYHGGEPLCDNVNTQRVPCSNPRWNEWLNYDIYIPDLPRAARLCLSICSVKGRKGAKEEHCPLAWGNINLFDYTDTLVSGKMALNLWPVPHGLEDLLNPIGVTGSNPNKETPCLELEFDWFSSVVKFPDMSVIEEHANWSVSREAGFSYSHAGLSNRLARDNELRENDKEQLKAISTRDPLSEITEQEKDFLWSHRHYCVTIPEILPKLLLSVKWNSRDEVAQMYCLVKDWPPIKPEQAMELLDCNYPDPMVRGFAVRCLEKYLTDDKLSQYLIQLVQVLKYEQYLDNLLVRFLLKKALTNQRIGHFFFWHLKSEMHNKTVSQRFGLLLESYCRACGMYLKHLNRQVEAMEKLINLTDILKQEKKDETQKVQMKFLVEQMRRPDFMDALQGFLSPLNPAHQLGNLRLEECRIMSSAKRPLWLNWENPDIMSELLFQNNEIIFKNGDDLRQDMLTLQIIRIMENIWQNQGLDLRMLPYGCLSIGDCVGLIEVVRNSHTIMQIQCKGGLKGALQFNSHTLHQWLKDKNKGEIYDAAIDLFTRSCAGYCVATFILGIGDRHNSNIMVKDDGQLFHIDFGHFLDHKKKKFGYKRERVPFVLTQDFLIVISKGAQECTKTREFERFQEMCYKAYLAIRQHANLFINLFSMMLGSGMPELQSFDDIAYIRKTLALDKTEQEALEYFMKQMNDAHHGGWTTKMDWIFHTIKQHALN
T2 sequence (P27986 whole entry partner): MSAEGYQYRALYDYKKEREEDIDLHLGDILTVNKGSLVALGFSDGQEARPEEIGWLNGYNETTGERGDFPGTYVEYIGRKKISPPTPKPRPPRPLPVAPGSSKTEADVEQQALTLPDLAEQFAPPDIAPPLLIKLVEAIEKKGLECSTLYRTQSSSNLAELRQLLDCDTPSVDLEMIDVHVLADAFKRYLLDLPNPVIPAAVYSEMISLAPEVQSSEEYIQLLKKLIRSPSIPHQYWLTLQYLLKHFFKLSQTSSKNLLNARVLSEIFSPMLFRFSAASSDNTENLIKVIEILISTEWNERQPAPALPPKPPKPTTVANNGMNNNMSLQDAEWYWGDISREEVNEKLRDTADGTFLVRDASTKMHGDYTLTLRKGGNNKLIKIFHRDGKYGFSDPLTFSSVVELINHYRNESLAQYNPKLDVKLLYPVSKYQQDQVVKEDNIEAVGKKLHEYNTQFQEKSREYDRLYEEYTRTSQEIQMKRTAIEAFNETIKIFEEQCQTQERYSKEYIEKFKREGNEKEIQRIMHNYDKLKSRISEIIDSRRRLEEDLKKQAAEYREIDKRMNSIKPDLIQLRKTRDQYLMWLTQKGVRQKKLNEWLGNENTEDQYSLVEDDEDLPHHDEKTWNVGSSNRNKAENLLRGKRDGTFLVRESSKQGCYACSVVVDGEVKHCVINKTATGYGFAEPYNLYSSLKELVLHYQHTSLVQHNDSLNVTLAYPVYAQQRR

PI3K γ (p110γ) = target: T3, PI3K γ (p110γ) (Homo sapiens, UniProt P48736); assay: PI 3-Kinase (human) HTRF assay, PI3K γ; details: read-out: PI3K γ IC50
T3 construct: purchased Upstate / Millipore Corporation
T3 sequence (P48736 whole entry): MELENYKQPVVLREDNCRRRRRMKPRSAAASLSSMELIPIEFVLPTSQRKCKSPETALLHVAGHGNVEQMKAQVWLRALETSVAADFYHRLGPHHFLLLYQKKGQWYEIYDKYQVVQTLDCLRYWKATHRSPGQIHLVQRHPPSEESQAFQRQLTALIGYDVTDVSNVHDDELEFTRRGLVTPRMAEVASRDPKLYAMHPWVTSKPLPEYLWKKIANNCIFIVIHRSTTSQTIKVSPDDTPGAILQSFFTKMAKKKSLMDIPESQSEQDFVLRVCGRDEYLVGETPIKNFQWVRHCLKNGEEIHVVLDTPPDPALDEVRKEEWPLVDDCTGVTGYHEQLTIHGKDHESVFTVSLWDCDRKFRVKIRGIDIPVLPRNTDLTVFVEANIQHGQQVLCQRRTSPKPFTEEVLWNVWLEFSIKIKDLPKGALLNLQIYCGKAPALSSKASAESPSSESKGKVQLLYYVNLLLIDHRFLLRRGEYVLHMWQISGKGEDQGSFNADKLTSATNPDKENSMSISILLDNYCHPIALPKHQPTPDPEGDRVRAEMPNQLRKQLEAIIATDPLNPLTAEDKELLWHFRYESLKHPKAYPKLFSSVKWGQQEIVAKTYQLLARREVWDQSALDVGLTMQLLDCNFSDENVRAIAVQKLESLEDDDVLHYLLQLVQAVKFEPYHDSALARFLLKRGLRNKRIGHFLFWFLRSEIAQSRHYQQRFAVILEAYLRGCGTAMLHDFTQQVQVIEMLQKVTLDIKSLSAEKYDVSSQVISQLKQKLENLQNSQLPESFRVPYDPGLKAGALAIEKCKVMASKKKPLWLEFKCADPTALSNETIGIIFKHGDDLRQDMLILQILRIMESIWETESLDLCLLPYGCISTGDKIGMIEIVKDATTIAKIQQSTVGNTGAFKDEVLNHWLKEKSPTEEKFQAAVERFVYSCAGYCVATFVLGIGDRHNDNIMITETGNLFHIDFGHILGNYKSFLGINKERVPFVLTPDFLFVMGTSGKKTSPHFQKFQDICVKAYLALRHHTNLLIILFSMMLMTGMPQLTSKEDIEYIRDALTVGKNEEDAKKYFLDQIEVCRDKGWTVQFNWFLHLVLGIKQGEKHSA

PI3K δ = target: T4, PI3K δ (Homo sapiens, UniProt O00329); assay: PI 3-Kinase (human) HTRF assay, PI3K δ; details: read-out: PI3K δ IC50
T4 construct: purchased Upstate / Millipore Corporation
T4 sequence (O00329 whole entry): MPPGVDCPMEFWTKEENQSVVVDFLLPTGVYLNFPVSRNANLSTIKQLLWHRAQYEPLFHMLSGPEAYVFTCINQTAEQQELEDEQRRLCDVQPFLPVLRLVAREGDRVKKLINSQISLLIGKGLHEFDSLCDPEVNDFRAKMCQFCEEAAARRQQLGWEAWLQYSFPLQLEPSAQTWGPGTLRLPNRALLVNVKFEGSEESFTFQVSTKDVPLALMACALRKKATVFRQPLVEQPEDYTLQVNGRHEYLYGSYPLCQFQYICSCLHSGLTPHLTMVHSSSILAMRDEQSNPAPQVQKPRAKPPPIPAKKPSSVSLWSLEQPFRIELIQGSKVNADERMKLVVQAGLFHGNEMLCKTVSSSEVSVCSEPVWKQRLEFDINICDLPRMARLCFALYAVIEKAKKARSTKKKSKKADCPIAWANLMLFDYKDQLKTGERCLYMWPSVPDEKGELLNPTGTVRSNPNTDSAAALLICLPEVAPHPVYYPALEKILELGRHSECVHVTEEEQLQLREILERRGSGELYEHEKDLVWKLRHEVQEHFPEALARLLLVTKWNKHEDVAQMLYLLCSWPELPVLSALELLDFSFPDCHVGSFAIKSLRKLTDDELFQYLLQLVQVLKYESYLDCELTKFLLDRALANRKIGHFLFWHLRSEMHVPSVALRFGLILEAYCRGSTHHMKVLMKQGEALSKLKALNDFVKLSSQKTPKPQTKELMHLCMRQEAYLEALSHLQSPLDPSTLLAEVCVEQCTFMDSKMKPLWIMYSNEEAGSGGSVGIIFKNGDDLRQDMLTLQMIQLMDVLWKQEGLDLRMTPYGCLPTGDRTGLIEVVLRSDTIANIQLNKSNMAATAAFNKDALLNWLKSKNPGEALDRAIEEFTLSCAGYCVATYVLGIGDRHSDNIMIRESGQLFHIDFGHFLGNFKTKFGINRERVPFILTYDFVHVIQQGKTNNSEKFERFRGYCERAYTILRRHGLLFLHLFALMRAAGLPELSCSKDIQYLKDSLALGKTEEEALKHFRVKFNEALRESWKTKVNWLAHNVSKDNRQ
T4 sequence (P27986 whole entry partner): as the sequence (P27986 whole entry partner) above

T1 sequence (P42338 whole entry): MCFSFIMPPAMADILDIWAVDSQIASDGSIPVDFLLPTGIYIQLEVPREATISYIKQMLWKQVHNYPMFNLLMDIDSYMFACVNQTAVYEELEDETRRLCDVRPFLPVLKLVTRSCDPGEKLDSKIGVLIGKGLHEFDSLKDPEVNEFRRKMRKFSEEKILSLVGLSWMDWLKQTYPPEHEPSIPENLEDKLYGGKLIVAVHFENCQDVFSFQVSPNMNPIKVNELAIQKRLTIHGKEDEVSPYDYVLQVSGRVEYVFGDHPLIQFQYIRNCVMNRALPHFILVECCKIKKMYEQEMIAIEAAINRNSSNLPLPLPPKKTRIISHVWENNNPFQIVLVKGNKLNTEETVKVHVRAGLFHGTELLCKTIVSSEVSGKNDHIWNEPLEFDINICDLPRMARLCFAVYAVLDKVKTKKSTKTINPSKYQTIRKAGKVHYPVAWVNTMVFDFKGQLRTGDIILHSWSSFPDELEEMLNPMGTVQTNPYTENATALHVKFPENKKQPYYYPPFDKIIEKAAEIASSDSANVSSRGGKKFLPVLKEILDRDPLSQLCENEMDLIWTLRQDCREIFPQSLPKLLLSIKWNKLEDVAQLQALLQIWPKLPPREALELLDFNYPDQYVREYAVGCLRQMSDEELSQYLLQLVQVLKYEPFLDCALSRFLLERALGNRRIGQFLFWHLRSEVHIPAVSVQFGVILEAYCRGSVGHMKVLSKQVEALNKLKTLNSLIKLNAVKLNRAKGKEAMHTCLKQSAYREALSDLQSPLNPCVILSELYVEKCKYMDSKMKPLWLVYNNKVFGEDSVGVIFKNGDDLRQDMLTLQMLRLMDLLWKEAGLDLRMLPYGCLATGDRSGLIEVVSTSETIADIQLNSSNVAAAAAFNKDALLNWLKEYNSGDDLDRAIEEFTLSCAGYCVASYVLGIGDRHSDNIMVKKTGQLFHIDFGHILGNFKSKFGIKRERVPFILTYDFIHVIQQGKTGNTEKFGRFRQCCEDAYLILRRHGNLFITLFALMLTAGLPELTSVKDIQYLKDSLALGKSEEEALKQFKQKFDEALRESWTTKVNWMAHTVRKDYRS
T1 sequence (P27986 whole entry partner): as the sequence (P27986 whole entry partner) above

Row | Structure (SMILES) | IC50 (PI3K β (p110β/p85α)) [µM] | IC50 (PI3K α (p110α/p85α)) [µM] | IC50 (PI3K γ (p110γ)) [µM] | IC50 (PI3K δ) [µM]
1 | C[C@H](N)C(=O)N1CCN(c2cnc3ccc(-c4ccc5oc(N)nc5c4)cc3n2)CC1 [Compound 207] | < 0.1 | < 0.1 | < 0.1 | < 1
2 | C[C@@H](N)C(=O)N1CCN(c2cnc3ccc(-c4ccc5oc(N)nc5c4)cc3n2)CC1 [Compound 208] | < 1 | < 0.1 | < 10 | < 1
3 | Nc1nc2cc(-c3ccc4ncc(N5CCC(O)C5)nc4c3)ccc2o1 (stereo not drawn) [Compound 209] | < 1 | < 0.1 | < 0.1 | < 10
4 | Nc1ncc(-c2cnc3ccc(-c4ccc5oc(N)nc5c4)cc3n2)cn1 [Compound 210] | > 10 | < 1 | > 10 | > 10
5 | CC(=O)N1CCC(Nc2ncnc3ccc(-c4ccc5oc(N)nc5c4)nc23)CC1 [Compound 211] | < 0.1 | < 0.1 | < 0.1 | < 0.1
6 | CN1CCC(Nc2ncnc3ccc(-c4ccc5oc(N)nc5c4)nc23)CC1 [Compound 212] | < 1 | < 0.1 | < 1 | < 1
7 | CNC(=O)C1CN(c2cnc3ccc(-c4ccc5oc(N)nc5c4)cc3n2)C1 [Compound 214] | < 0.1 | < 0.1 | < 1 | < 10
8 | Nc1nc2cc(-c3ccc4ncc(N5CC(C(=O)NC6CC6)C5)nc4c3)ccc2o1 [Compound 215] | < 1 | < 0.1 | < 1 | < 10
9 | CN(C)CC(=O)N1CCN(c2cnc3ccc(-c4ccc5oc(N)nc5c4)cc3n2)CC1 [Compound 217] | < 1 | < 0.1 | < 1 | < 1
10 | CCN(CC)CCNc1cnc2ccc(-c3ccc4oc(N)nc4c3)cc2n1 [Compound 218] | < 1 | < 1 | < 10 | < 1
11 | Nc1nc2cc(-c3ccc4ncc(NCCN5CCCC5)nc4c3)ccc2o1 [Compound 219] | < 1 | < 1 | < 1 | < 1
12 | CCN(CC)CCCNc1cnc2ccc(-c3ccc4oc(N)nc4c3)cc2n1 [Compound 220] | < 1 | < 0.1 | < 1 | < 0.1
13 | Nc1nc2cc(-c3ccc4ncc(NCCCN5CCOCC5)nc4c3)ccc2o1 [Compound 222] | < 1 | < 0.1 | < 1 | < 0.1
14 | Cc1ccn(C2CCN(c3cnc4ccc(-c5ccc6oc(N)nc6c5)cc4n3)CC2)n1 [Compound 223] | > 10 | < 0.1 | < 1 | > 10
15 | CCN(CC)CCn1cnc2ccc(-c3ccc4oc(N)nc4c3)cc2c1=O [Compound 224] | > 10 | < 10 | > 10 | > 10
16 | Nc1nc2cc(-c3ccc4ncc(N5CCN(C(=O)[C@H]6CCCN6)CC5)nc4c3)ccc2o1 [Compound 225] | < 0.1 | < 0.1 | < 0.1 | < 0.1
17 | Nc1nc2cc(-c3ccc4ncc(N5CCN(C(=O)C6(N)CC6)CC5)nc4c3)ccc2o1 [Compound 226] | > 10 | < 1 | < 10 | < 10
18 | Nc1nc2ccc(-c3ccc4nnc(-c5ccncc5)n4c3)cc2o1 [Compound 230] | < 1 | < 10 | < 1 | < 10
19 | COc1nc(-c2ccc3oc(N)nc3c2)cnc1N [Compound 238] | < 1 | < 1 | < 1 | < 10
20 | CC(=O)Nc1nc2ccc(-c3ccc4nc(N)oc4c3)cc2s1 [Compound 242] | < 0.1 | < 0.1 | < 0.1 | > 10
21 | Nc1nc2ccc(-c3ccc4nc(N)sc4c3)cc2o1 [Compound 243] | < 0.1 | < 1 | < 0.1 | > 10
22 | Nc1cn2cc(-c3ccc4oc(N)nc4c3)ccc2n1 [Compound 245] | < 10 | < 1 | < 1 | > 10
23 | Nc1nc2ccc(-c3ccc4nc(N)oc4c3)cc2o1 [Compound 246] | > 10 | > 10 | > 10 | > 10
24 | Nc1cn2cc(-c3ccc4nc(N)oc4c3)ccc2n1 [Compound 247] | < 10 | > 10 | < 10 | > 10
25 | Nc1nc2cc(-c3ccc4sc(N)nc4c3)ccc2o1 [Compound 248] | < 1 | < 10 | < 1 | < 10
26 | Nc1nc2ccc(-c3ccc4sc(N)nc4c3)cc2o1 [Compound 249] | < 0.1 | < 0.1 | < 0.1 | < 1

Row | Structure (SMILES) | IC50 (PI3K β (p110β/p85α)) [µM] | IC50 (PI3K α (p110α/p85α)) [µM] | IC50 (PI3K γ (p110γ)) [µM] | IC50 (PI3K δ) [µM]
27 | CC(=O)Nc1nc2cc(-c3ccc4oc(N)nc4c3)ccc2s1 [Compound 250] | > 10 | > 10 | < 0.1 | > 10
28 | CC(=O)Nc1nc2cc(-c3ccc4nc(N)oc4c3)ccc2s1 [Compound 251] | < 0.1 | < 0.1 | < 0.1 | < 0.1
29 | Nc1nc2cc(-c3ccc4ncc(N5CC(C(=O)N6CCOCC6)C5)nc4c3)ccc2o1 [Compound 252] | < 10 | > 10 | < 10 | < 10
30 | CN1CCN(C(=O)C2CN(c3cnc4ccc(-c5ccc6oc(N)nc6c5)cc4n3)C2)CC1 [Compound 253] | < 10 | > 10 | < 10 | < 10
31 | Nc1nc2cc(-c3ccc4ncn(C5CC5)c(=O)c4c3)ccc2o1 [Compound 254] | > 10 | < 1 | < 1 | > 10
32 | Nc1nc2cc(-c3ccc4ncn(CCN5CCCC5)c(=O)c4c3)ccc2o1 [Compound 255] | < 10 | < 10 | < 10 | < 10
33 | Nc1nc2cc(-c3ccc4ncn(C5CCCC5)c(=O)c4c3)ccc2o1 [Compound 256] | > 10 | < 10 | > 10 | > 10
34 | NC(=O)[C@@H]1CCCN1c1cnc2ccc(-c3ccc4oc(N)nc4c3)cc2n1 [Compound 257] | > 10 | < 0.1 | > 10 | > 10
35 | NC(=O)[C@@H]1CCCN1C(=O)c1cnc2ccc(-c3ccc4oc(N)nc4c3)cn12 [Compound 259] | > 10 | < 1 | < 10 | > 10
36 | Nc1nc2cc(-c3ccc4ncc(C(=O)N5CCN(C6CC6)CC5)n4c3)ccc2o1 [Compound 263] | < 10 | < 0.1 | < 10 | < 10
37 | Nc1nc2cc(-c3ccc4ncc(C(=O)N5CC(N6CCOCC6)C5)n4c3)ccc2o1 [Compound 266] | < 10 | < 0.1 | < 1 | < 1
38 | C[C@H]1CN(C(=O)C2CN(c3cnc4ccc(-c5ccc6oc(N)nc6c5)cc4n3)C2)CCN1 [Compound 268] | < 10 | < 0.1 | < 1 | < 10
39 | Nc1nc2cc(-c3ccc4ncn(CCCN5CCCC5)c(=O)c4c3)ccc2o1 [Compound 271] | < 10 | < 1 | > 10 | < 10
40 | COCCn1cnc2ccc(-c3ccc4oc(N)nc4c3)cc2c1=O [Compound 272] | < 10 | < 1 | < 10 | > 10
41 | CN1CCN(CCNc2cnc3ccc(-c4ccc5oc(N)nc5c4)cc3n2)CC1 [Compound 275] | < 1 | < 0.1 | < 1 | < 1
42 | Nc1nc2cc(-c3ccc4ncc(N5CCN(C(=O)CN6CCCC6)CC5)nc4c3)ccc2o1 [Compound 278] | < 1 | < 0.1 | < 1 | < 10
43 | CCN(CC)CC(=O)N1CCN(c2cnc3ccc(-c4ccc5oc(N)nc5c4)cc3n2)CC1 [Compound 279] | < 10 | < 0.1 | < 10 | < 10
44 | CN1CCN(CCn2cnc3ccc(-c4ccc5oc(N)nc5c4)cc3c2=O)CC1 [Compound 280] | > 10 | < 10 | > 10 | > 10
45 | CC(C)N1CCN(C(=O)C2CN(c3cnc4ccc(-c5ccc6oc(N)nc6c5)cc4n3)C2)CC1 [Compound 285] | < 10 | < 0.1 | < 1 | < 1
46 | Nc1nc2cc(-c3ccc4ncc(N5CCN(C(=O)C6(N)CCC6)CC5)nc4c3)ccc2o1 [Compound 286] | < 1 | < 0.1 | < 0.1 | < 1
47 | Nc1nc2cc(-c3ccc4ncc(N5CC(C(=O)N6CCN(CC7CC7)CC6)C5)nc4c3)ccc2o1 [Compound 287] | < 10 | < 0.1 | < 1 | < 1
48 | Nc1nc2cc(-c3ccc4ncc(C(=O)NCCCN5CCOCC5)n4c3)ccc2o1 [Compound 288] | < 1 | < 1 | < 10 | < 1
49 | Nc1nc2cc(-c3ccc4ncn(CCN5CCOCC5)c(=O)c4c3)ccc2o1 [Compound 289] | < 10 | < 1 | < 1 | > 10
50 | Nc1nc2cc(-c3ccc4ncn(CCCN5CCOCC5)c(=O)c4c3)ccc2o1 [Compound 290] | > 10 | < 1 | > 10 | > 10
51 | CN1CCN(CCCn2cnc3ccc(-c4ccc5oc(N)nc5c4)cc3c2=O)CC1 [Compound 291] | > 10 | < 1 | > 10 | > 10
